Measurements: patent US20180207228A1, “PEPTIDE COMBINATIONS AND USES THEREOF FOR TREATING GRASS ALLERGY” (ALK-Abelló A/S, priority 2015, published 2018)
Where no end group is shown, it is not given here.

Legend:
[1] = system: release of IFN-γ upon T cell activation; test: Fluorospot assay, IFN-γ release (DK1-TCL01, US1-TCL01); format: cell-based, human; conditions: head prints TCL-02 DK1; 17 TCL-01 DK1 lines
Procedure, shortened: (§1)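 Grass-allergic donors' CD8-depleted PBMCs were expanded 14 days with natural grass allergens plus IL-2 to give TCL01 lines. These were incubated 20 h at 37° C with single peptides or peptide mixes at 2 μg/ml, and spot-forming cells were counted. Hit: SI≥2, p≤0.05, Poisson ≤0.05, ≥20 SFC/10^6 cells.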

[2] = system: release of IL-5 upon T cell activation; test: Fluorospot assay, IL-5 release (DK1-TCL01, US1-TCL01); format: cell-based, human; conditions: head prints TCL-02 DK1; text: 25 TCL-01 DK1 lines
Procedure, shortened: as §1

[3] = system: allergen specific T cells; test: T cell proliferation assay (72 h) on donor derived T cell lines (TCL02/TCL03); format: cell-based, human; conditions: for Proliferation % donor coverage (TCL-02 DK1): T cell lines TCL-02 DK1, 30 donors, hit criteria SI>=2, CPM>=1000; for Proliferation strength (TCL-02 DK1): T cell lines TCL-02 DK1, strength of response (average relative magnitude)
Procedure, shortened: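 CD8-depleted PBMCs from grass-allergic donors stimulated with natural grass allergen mix (nPhl p 1 0.5 μg/ml) to raise T cell lines; restimulated with irradiated APCs, allergens or PHA-P (0.5 μg/ml) plus rIL-2. Proliferation to overlapping 20-mer and selected 15-mer grass peptides tested with TCL02 (day 24) or TCL03 (day 34).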

[4] = biological target: 25 HLA Class II alleles (purified class II MHC molecules); test: competitive radiolabelled-peptide binding to purified HLA class II (25 alleles, binder if IC50 <300 nM); worldwide phenotypic coverage of the alleles found to bind

Measured binding coverage 25 alleles [4]	Molecule	IFN-gamma % donor coverage (TCL-02 DK1) [1]	IL-5-Fluorospotr % donor coverage (TCL-02 DK1) [2]	Proliferation % donor coverage (TCL-02 DK1) [3]	Proliferation strength (TCL-02 DK1) [3]
–	DKYRTFVATFGAASNKAFAE-OH [compound 64]	0.00%	16.00%	36.67%	6.00
–	YFKGNFERLAITKGKVDPTD-OH [compound 59]	0.00%	0.00%	30.00%	3.20
–	RNVFDEVIPTAFKIGKTYTP-OH [compound 44]	0.00%	0.00%	20.00%	1.40
–	TATYGSKWLEARATFYGSNP-OH [compound 90]	4.00%	12.00%	26.67%	3.50
–	AGELELQFRRVKSKYPEGTK-OH [compound 7]	4.00%	28.00%	40.00%	8.10
–	DGKARTAWVDSGAQLGELYY-OH [compound 54]	4.00%	4.00%	26.67%	4.20
–	CC(C)[C@H](NC(=O)[C@H](C)NC(=O)[C@H](C)NC(=O)[C@H](CCCCN)NC(=O)[C@@H](N)Cc1ccccc1)C(=O)N[C@@H](C)C(=O)N[C@@H](C)C(=O)N[C@@H](C)C(=O)N[C@@H](C)C(=O)NCC(=O)N[C@@H](C)C(=O)N1CCC[C@H]1C(=O)N1CCC[C@H]1C(=O)N[C@@H](C)C(=O)N[C@@H](CC(=O)O)C(=O)O [compound 133]	0.00%	21.74%	31.03%	4.70
–	GSNEKHLAVLVKYEGDTMAE-OH [compound 31]	0.00%	0.00%	10.00%	1.40
–	PYVSKNPRQAYANYRDIDLG-OH [compound 56]	4.00%	0.00%	20.00%	3.10
–	GQEDKLRKAGELTLQFRRVK-OH [compound 101]	0.00%	4.00%	13.33%	1.20
–	VVAVDIKEKGKDKWIELKES-OH [compound 25]	8.00%	4.00%	20.00%	1.10
–	TDDNEEPIAPYHFDLSGHAF-OH [compound 4]	4.00%	28.00%	40.00%	6.40
–	GFGMLLRKYGIAAENVIDVK-OH [compound 48]	15.00%	4.00%	30.00%	4.70
–	YHFDLSGHAFGAMAKKGDEQ-OH [compound 5]	15.00%	24.00%	46.67%	7.80
–	SMGDDHFWAVRGGGGESFGI-OH [compound 49]	12.00%	20.00%	40.00%	5.60
–	KPPFSGMTGSGNTPI-OH [compound 122]	0.00%	4.17%	10.34%	0.60
–	IPKVPPGPNITATYGDKWLD-OH [compound 14]	0.00%	0.00%	3.33%	0.40
–	KSSKPLVGPFNFRFMSKGGM-OH [compound 39]	4.00%	12.00%	13.33%	1.10
–	EVELREHGSDEWVAMTKGEG-OH [compound 33]	0.00%	0.00%	0.00%	0.00
–	AYKTAEGATPEAKYDAYVAT-OH [compound 79]	0.00%	0.00%	26.67%	3.30
–	AEGLSGEPKGAAESSSKAAL-OH [compound 77]	0.00%	0.00%	3.33%	0.40
–	AAGVPPADKYRTFVATFGAA-OH [compound 75]	0.00%	0.00%	10.00%	1.10

Measured binding coverage 25 alleles [4]	Molecule	IFN-gamma % donor coverage (TCL-02 DK1) [1]	IL-5-Fluorospotr % donor coverage (TCL-02 DK1) [2]	Proliferation % donor coverage (TCL-02 DK1) [3]	Proliferation strength (TCL-02 DK1) [3]
–	CC(C)C[C@H](NC(=O)[C@H](CCC(=O)O)NC(=O)CN)C(=O)N[C@@H](CCC(=O)O)C(=O)N[C@@H](CC(C)C)C(=O)N[C@@H](CCC(N)=O)C(=O)N[C@@H](Cc1ccccc1)C(=O)N[C@@H](CCCNC(=N)N)C(=O)N[C@@H](CCCNC(=N)N)C(=O)N[C@H](C(=O)N[C@@H](CCCCN)C(=O)N[C@@H](CO)C(=O)N[C@@H](CCCCN)C(=O)N[C@@H](Cc1ccc(O)cc1)C(=O)N1CCC[C@H]1C(=O)O)C(C)C [compound 118]	4.00%	25.00%	65.52%	11.50
69%	AGYTPAAPAGAEPAGKATTE [peptide 228 (Phl p 5, 1)]	–	–	–	–
91%	TKKGNVWEVKSSKPLVGPFN [peptide 219 (Phl p 3, 47)]	–	–	–	–
96%	KSSKPLVGPFNFRFMSKGGM [peptide 220 (Phl p 3, 56)]	–	–	–	–
97%	TPFPHRKGVLFNIQYVNYWF [peptide 227 (Phl p 4, 386)]	–	–	–	–
81%	EWVAMTKGEGGVWTFDSEEP [peptide 214 (Phl p 2, 40)]	–	–	–	–
90%	WGAIWRIDTPDKLTGPFTVR [peptide 211 (Phl p 1, 193)]	–	–	–	–
58%	TEAEDVIPEGWKADTSYESK [peptide 213 (Phl p 1, 221)]	–	–	–	–
98%	GFGMLLRKYGIAAENVIDVK [peptide 225 (Phl p 4, 163)]	–	–	–	–
92%	EPLQGPFNFRFLTEKGMKNV [peptide 216 (Phl p 2, 58)]	–	–	–	–
57%	SMGDDHFWAVRGGGGESFGI [peptide 226 (Phl p 4, 195)]	–	–	–	–
99%	YIITPTNVSHIQSAVVSGRR [peptide 223 (Phl p 4, 55)]	–	–	–	–
98%	GSDPKKLVLNIKYTRPGDSL [peptide 217 (Phl p 3, 11)]	–	–	–	–
99%	FAVVDLNKMRAVWVDGKART [peptide 224 (Phl p 4, 101)]	–	–	–	–
92%	KDKWIELKESWGAIWRIDTP [peptide 210 (Phl p 1, 183)]	–	–	–	–
47%	WLDAKSTWYGKPTGAGPKDN [peptide 201 (Phl p 1, 18)]	–	–	–	–
39%	HGSEEWEPLTKKGNVWEVKS [peptide 218 (Phl p 3, 38)]	–	–	–	–
100%	KEDFLGSLVKEIPPRLLYAK [peptide 222 (Phl p 4, 8)]	–	–	–	–
98%	EQKLIEKINAGFKAALAAAA [peptide 229 (Phl p 5, 21)]	–	–	–	–
84%	GRGSGSSFEIKSTKPEASSG [peptide 202 (Phl p 1, 66)]	–	–	–	–
40%	VRYTTEGGTKTEAEDVIPEG [peptide 212 (Phl p 1, 211)]	–	–	–	–
